Assay results published in ChEMBL document CHEMBL1201862, “PubChem BioAssay data set” (2004).
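Grown in 96-well plates, cells were treated for 48 hours with each compound at five concentrations. Insufficient inhibition: endpoint recorded as highest concentration tested. GI50 marks 50% less growth.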 Active and inactive are the calls of the source. Cut-off read from the data, not from the text of the source: active = GI50 up to about 1.1 µM and inactive = higher.

What was measured:
Assay in all cases: NCI tumour cell line growth inhibition, 48 h
[1] = test system: M14
[2] = test system: OVCAR-5
[3] = test system: SW-620
[4] = test system: HOP-92
[5] = test system: OVCAR-4
[6] = test system: SK-MEL-2
[7] = test system: IGROV-1
[8] = test system: SR
[9] = test system: ACHN
[10] = test system: NCI-H23
[11] = test system: RXF 393
[12] = test system: HOP-62
[13] = test system: 786-0
[14] = test system: EKVX
[15] = test system: NCI-H226
[16] = test system: RPMI-8226
[17] = test system: HCC 2998
[18] = test system: SNB-75

Row | Compound | GI50 [1] | GI50 [2] | GI50 [3] | GI50 [4] | GI50 [5] | GI50 [6] | GI50 [7] | GI50 [8] | GI50 [9] | GI50 [10] | GI50 [11] | GI50 [12] | GI50 [13] | GI50 [14] | GI50 [15] | GI50 [16] | GI50 [17] | GI50 [18]
1 | O=c1[nH]c(=O)n(C2CC(O)C(CO)O2)cc1/C=C/Br (centres undefined) | > 100 µM (inactive) | > 100 µM (inactive) | > 100 µM (inactive) | > 100 µM (inactive) | > 100 µM (inactive) | > 100 µM (inactive) | > 100 µM (inactive) | > 100 µM (inactive) | > 100 µM (inactive) | > 100 µM (inactive) | > 100 µM (inactive) | > 100 µM (inactive) | > 100 µM (inactive) | > 100 µM (inactive) | > 100 µM (inactive) | – | – | –
2 | CCOC(=O)C1C(=S)NC(=O)C1C#N (centres undefined) | > 100 µM (inactive) | > 100 µM (inactive) | > 100 µM (inactive) | > 100 µM (inactive) | > 100 µM (inactive) | > 100 µM (inactive) | > 100 µM (inactive) | – | > 100 µM (inactive) | > 100 µM (inactive) | > 100 µM (inactive) | > 100 µM (inactive) | > 100 µM (inactive) | > 100 µM (inactive) | – | > 100 µM (inactive) | > 100 µM (inactive) | > 100 µM (inactive)
3 | CNCCCCN(C)/[N+]([O-])=N\O | > 100 µM (inactive) | > 100 µM (inactive) | > 100 µM (inactive) | > 100 µM (inactive) | > 100 µM (inactive) | > 100 µM (inactive) | > 100 µM (inactive) | – | > 100 µM (inactive) | > 100 µM (inactive) | > 100 µM (inactive) | > 100 µM (inactive) | > 100 µM (inactive) | > 100 µM (inactive) | > 100 µM (inactive) | > 100 µM (inactive) | > 100 µM (inactive) | 49.2 µM (inactive)
4 | O=C(Nc1c(O)[nH]c(=S)[nH]c1=O)c1ccccn1 | > 100 µM (inactive) | > 100 µM (inactive) | > 100 µM (inactive) | 39.1 µM (inactive) | > 100 µM (inactive) | > 100 µM (inactive) | > 100 µM (inactive) | > 100 µM (inactive) | > 100 µM (inactive) | > 100 µM (inactive) | – | > 100 µM (inactive) | > 100 µM (inactive) | – | > 100 µM (inactive) | > 100 µM (inactive) | – | > 100 µM (inactive)
5 | COc1nc(NC2OC(COC(C)=O)C(OC(C)=O)C(OC(C)=O)C2OC(C)=O)c(/N=C(\C)C(C)=O)c(=O)n1C (centres undefined) | > 100 µM (inactive) | > 100 µM (inactive) | > 100 µM (inactive) | > 100 µM (inactive) | > 100 µM (inactive) | > 100 µM (inactive) | > 100 µM (inactive) | – | > 100 µM (inactive) | > 100 µM (inactive) | > 100 µM (inactive) | > 100 µM (inactive) | > 100 µM (inactive) | > 100 µM (inactive) | > 100 µM (inactive) | > 100 µM (inactive) | > 100 µM (inactive) | > 100 µM (inactive)
6 | O=C1CCC2(c3ccc(Cl)cc3)Nc3ncccc3N12 (centres undefined) | > 100 µM (inactive) | > 100 µM (inactive) | > 100 µM (inactive) | > 100 µM (inactive) | > 100 µM (inactive) | > 100 µM (inactive) | > 100 µM (inactive) | – | > 100 µM (inactive) | > 100 µM (inactive) | > 100 µM (inactive) | > 100 µM (inactive) | > 100 µM (inactive) | > 100 µM (inactive) | > 100 µM (inactive) | > 100 µM (inactive) | > 100 µM (inactive) | 79.8 µM (inactive)
7 | CSc1c(C)c(C)nn1-c1ccccc1 | > 100 µM (inactive) | > 100 µM (inactive) | > 100 µM (inactive) | – | > 100 µM (inactive) | > 100 µM (inactive) | > 100 µM (inactive) | – | > 100 µM (inactive) | > 100 µM (inactive) | > 100 µM (inactive) | – | > 100 µM (inactive) | > 100 µM (inactive) | – | > 100 µM (inactive) | > 100 µM (inactive) | 58.2 µM (inactive)
8 | CC(C)(c1cn(Cc2ccccc2)c2ccccc12)c1cn(Cc2ccccc2)c2ccccc12 | > 100 µM (inactive) | > 100 µM (inactive) | > 100 µM (inactive) | 32.2 µM (inactive) | > 100 µM (inactive) | – | > 100 µM (inactive) | > 100 µM (inactive) | > 100 µM (inactive) | > 100 µM (inactive) | – | > 100 µM (inactive) | > 100 µM (inactive) | > 100 µM (inactive) | 51.3 µM (inactive) | > 100 µM (inactive) | – | 17.3 µM (inactive)
9 | O=C(Cc1nc2ccccc2s1)Nc1ccc(Cl)cc1 | 77.1 µM (inactive) | > 100 µM (inactive) | > 100 µM (inactive) | – | > 100 µM (inactive) | 88.9 µM (inactive) | > 100 µM (inactive) | > 100 µM (inactive) | 56.5 µM (inactive) | > 100 µM (inactive) | > 100 µM (inactive) | > 100 µM (inactive) | > 100 µM (inactive) | > 100 µM (inactive) | > 100 µM (inactive) | – | > 100 µM (inactive) | 91.6 µM (inactive)
10 | CC(C)(C)OC1=C(OC(C)(C)C)C(O)(c2ccccc2)C1=O (centres undefined) | > 100 µM (inactive) | > 100 µM (inactive) | > 100 µM (inactive) | – | > 100 µM (inactive) | – | > 100 µM (inactive) | – | > 100 µM (inactive) | > 100 µM (inactive) | > 100 µM (inactive) | – | > 100 µM (inactive) | > 100 µM (inactive) | – | > 100 µM (inactive) | > 100 µM (inactive) | > 100 µM (inactive)
11 | COC(=O)C1=C(C(=O)OC)C2(C3C(SC)=CC(C)(C)CC3S1)N(Cc1ccccc1)CCN2Cc1ccccc1 (centres undefined) | > 100 µM (inactive) | > 100 µM (inactive) | > 100 µM (inactive) | < 0.01 µM (active) | > 100 µM (inactive) | > 100 µM (inactive) | > 100 µM (inactive) | – | 48.2 µM (inactive) | > 100 µM (inactive) | 54.7 µM (inactive) | > 100 µM (inactive) | > 100 µM (inactive) | > 100 µM (inactive) | > 100 µM (inactive) | 18.3 µM (inactive) | – | > 100 µM (inactive)
12 | CC(=O)c1c2c(cc3c1CC1(C3)Cc3cc4c(c(C(C)=O)c3C1)CCC4)CCC2 | > 100 µM (inactive) | > 100 µM (inactive) | > 100 µM (inactive) | > 100 µM (inactive) | > 100 µM (inactive) | – | > 100 µM (inactive) | > 100 µM (inactive) | > 100 µM (inactive) | > 100 µM (inactive) | > 100 µM (inactive) | > 100 µM (inactive) | > 100 µM (inactive) | – | – | – | > 100 µM (inactive) | 82.4 µM (inactive)
13 | O=c1cc2ccccc2nn1Cc1cccc(Cl)c1 | > 100 µM (inactive) | > 100 µM (inactive) | 92.5 µM (inactive) | > 100 µM (inactive) | > 100 µM (inactive) | > 100 µM (inactive) | > 100 µM (inactive) | – | > 100 µM (inactive) | 57.3 µM (inactive) | – | > 100 µM (inactive) | > 100 µM (inactive) | > 100 µM (inactive) | 57.1 µM (inactive) | 30.7 µM (inactive) | > 100 µM (inactive) | 32.7 µM (inactive)
14 | Cc1ccc(S(=O)(=O)C(CC(=O)N2CCCC2)C(=O)c2ccccc2)cc1 (centres undefined) | > 100 µM (inactive) | > 100 µM (inactive) | 37.7 µM (inactive) | > 100 µM (inactive) | > 100 µM (inactive) | – | > 100 µM (inactive) | 25.5 µM (inactive) | > 100 µM (inactive) | > 100 µM (inactive) | > 100 µM (inactive) | > 100 µM (inactive) | > 100 µM (inactive) | – | – | – | > 100 µM (inactive) | 80.2 µM (inactive)
15 | CC(C)(C)c1cc2nc(c1)C(C(F)(F)F)(C(F)(F)F)OB(Br)OC2(C(F)(F)F)C(F)(F)F | 0.0209 µM (active) | 0.0532 µM (active) | < 0.01 µM (active) | – | < 0.01 µM (active) | 1.47 µM (inactive) | 0.0269 µM (active) | – | – | 4.47 µM (inactive) | 10 µM (inactive) | 0.0367 µM (active) | 0.115 µM (active) | < 0.01 µM (active) | – | 0.0607 µM (active) | 0.233 µM (active) | 3.56 µM (inactive)
16 | CC1CCC2CC(=O)OC([C@@H]3C(=O)O[C@@H](C4=CCCC4)C4C(C)CCC43)C12 (some centres undefined) | > 100 µM (inactive) | – | 70 µM (inactive) | – | > 10 µM (inactive) | > 100 µM (inactive) | 80.2 µM (inactive) | 39 µM (inactive) | 61.4 µM (inactive) | > 100 µM (inactive) | > 100 µM (inactive) | > 100 µM (inactive) | > 100 µM (inactive) | > 100 µM (inactive) | > 100 µM (inactive) | 37.2 µM (inactive) | > 100 µM (inactive) | > 100 µM (inactive)
17 | Cc1c2cc[n+](C)cc2c(C)c2c1[nH]c1ccc(OCC(F)(F)F)cc12 | – | – | 3.35 µM (inactive) | 2.43 µM (inactive) | 2.45 µM (inactive) | 3.4 µM (inactive) | 2.27 µM (inactive) | 2.67 µM (inactive) | – | 1.23 µM (inactive) | – | 0.789 µM (active) | 0.378 µM (active) | 15 µM (inactive) | 0.499 µM (active) | – | 5.05 µM (inactive) | –
18 | COc1ccc(-c2cc(=O)c3ccc(O)cc3o2)c(OC)c1OC | 72.9 µM (inactive) | > 10 µM (inactive) | 48 µM (inactive) | 82.2 µM (inactive) | 88.7 µM (inactive) | 27.2 µM (inactive) | > 100 µM (inactive) | – | 40.9 µM (inactive) | 43.4 µM (inactive) | 28.9 µM (inactive) | 92.3 µM (inactive) | 79.3 µM (inactive) | 87.3 µM (inactive) | > 100 µM (inactive) | 18.9 µM (inactive) | 48.8 µM (inactive) | 28.7 µM (inactive)
